Source: PMC3815523 (ACS chemical biology, 2013)

Legend:
[1] = target: hSTING CTD (amino acid residues 139-379) (Homo sapiens, UniProt Q86WV6); assay: Isothermal titration calorimetry, hSTING-CTD; format: binding
[2] = system: full-length mSTING in 293T cells; assay: Response of 293T cells overexpressing full-length mSTING; format: cell-based, mouse; details: 293T cells overexpressing mSTING; c-di-GMP 2 μg/ml transfected, DMXAA 500 μM
[3] = system: Raw264.7 cells; assay: IFN-β secretion in Raw264.7 cells; format: cell-based; details: Raw264.7 mouse macrophage cell line
[4] = system: TBK1 in Raw264.7 cells; assay: TBK1 phospho-Ser 172 immunoblot in Raw264.7 cells; format: cell-based, mouse
[5] = system: IRF3; assay: IRF3-driven luciferase reporter cell line; format: cell-based, mouse
[6] = system: human leukocytes; details: cited from earlier work
[7] = target: T1, mSTING CTD (amino acids 139-378) (Mus musculus, UniProt Q3TBT3); assay: Isothermal titration calorimetry, mSTING-CTD; format: binding; details: ITC
T1 sequence (Q3TBT3 139-378): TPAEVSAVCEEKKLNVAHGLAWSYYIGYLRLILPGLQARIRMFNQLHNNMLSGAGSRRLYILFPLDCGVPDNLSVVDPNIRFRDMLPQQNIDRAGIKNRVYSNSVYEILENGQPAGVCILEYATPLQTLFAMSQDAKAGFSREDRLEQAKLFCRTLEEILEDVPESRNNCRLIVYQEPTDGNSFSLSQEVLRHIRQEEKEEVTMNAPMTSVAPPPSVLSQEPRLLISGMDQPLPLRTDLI

[8] = target: T2, mSTING CTD (Mus musculus, UniProt Q3TBT3); assay: Fluorescence polarization competition assay with fluorescein-labeled c-di-GMP; format: binding; details: FP
T2 sequence (Q3TBT3 139-378): T1 sequence (Q3TBT3 139-378)

Sequence of hSTING CTD (amino acid residues 139-379) (Q86WV6 140-379): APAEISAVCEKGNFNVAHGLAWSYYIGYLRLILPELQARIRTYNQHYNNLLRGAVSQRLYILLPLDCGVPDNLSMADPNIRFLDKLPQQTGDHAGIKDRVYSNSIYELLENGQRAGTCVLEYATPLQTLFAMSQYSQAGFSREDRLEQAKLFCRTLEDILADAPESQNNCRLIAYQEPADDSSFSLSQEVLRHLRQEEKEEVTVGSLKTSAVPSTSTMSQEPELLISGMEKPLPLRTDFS

Row | SMILES | interaction with hSTING CTD ([1]; ITC) | affinity for the CTD of hSTING lower than for mSTING ([1]; from upper bound of detection by ITC ∼100 μM) | responsiveness of cells [2] | IFN-β secretion [3] | TBK1 phosphorylation (phospho-Ser 172) [4] | IRF3 activation and nuclear translocation [5] | IL-6, IL-8 and TNFα secretion [6] | higher binding affinity of the mouse homolog vs hSTING ([7]; mSTING CTD vs hSTING CTD) | Kd ([7]; read-out: dissociation constant (Kd), 25°C, mSTING CTD) | Kd ([1]; ITC, 25°C, hSTING CTD) | stoichiometry ([1]; ITC, hSTING CTD) | competition with fluorescent c-di-GMP probe (apparent IC50) [8]
1 | Cc1ccc2c(=O)c3cccc(CC(=O)O)c3oc2c1C [DMXAA, 5,6– dimethylxanthenone-4-acetic acid] | no interaction | at least 1000 fold | responsive | induces IFN-β secretion | became phosphorylated in response to DMXAA in a dose- and time-dependent manner | induces IRF3 activation and nuclear translocation |  |  |  |  |  | 
2 | Cc1cccc2oc3c(CC(=O)O)cccc3c(=O)c12 [XAA-8Me] |  |  |  |  |  |  | increased |  |  |  |  | 
3 | Nc1nc2c(ncn2[C@@H]2O[C@@H]3COP(=O)(O)O[C@H]4[C@@H](O)[C@H](n5cnc6c(=O)[nH]c(N)nc65)O[C@@H]4COP(=O)(O)O[C@H]3[C@H]2O)c(=O)[nH]1 [c-di-GMP, cyclic-di-GMP] |  |  | responsive |  |  |  |  | ~50 fold | ~0.11 µM | ~5.2 µM | 0.59 | competed out this signal
